Reference: patent US11261211B2, “19-NOR neuroactive steroids and methods of use thereof” (Sage Therapeutics, Inc., priority 2013, dated 2022)

Molecular target: α1β2γ2 GABAA receptor (Homo sapiens (Human), UniProt P14867+P47870)
Experiment: Patch clamp electrophysiology of recombinant α1β2γ2 GABAA receptors in LTK cells
Assay type: cell-based
Details: for activity at 10 µM / Emax: LTK; for activity at 10 µM / α1β2γ2 GABA Qpatch in Ltk (Efficacy at 10 μm): 10 μM compound, Qpatch, Ltk cells, GABA EC20 2 μM; for activity at 10 µM: read-out: α1β2γ2 GABA Qpatch in Ltk (Efficacy at 10 μm); for Emax / EC50: potentiation of GABA EC20 (2 μM) current; for Emax: read-out: GABAa alpha1 (α1β2γ2) Emax (%); for EC50: read-out: GABAa alpha1 (α1β2γ2)EC50
Description: Cellular electrophysiology is used to measure the pharmacological properties of our GABAA receptor modulators in heterologous cell systems. Each compound is tested for its ability to affect GABA mediated currents at a submaximal agonist dose (GABA EC20=2 μM). LTK cells are stably transfected with the α1β2γ2 subunits of the GABA receptor and CHO cells are transiently transfected with the α4β3δ subunits via the Lipofecatamine method. Cells were passaged at a confluence of about 50-80% and then seeded onto 35 mm sterile culture dishes containing 2 ml culture complete medium without antibiotics or antimycotics. Confluent clusters of cells are electrically coupled (Pritchett et al., 1988). Because responses in distant cells are not adequately voltage clamped and because of uncertainties about the extent of coupling (Verdoorn et al., 1990), cells were cultivated at a density that enables the recording of single cells (without visible connections to other cells).
Whole cell currents were measured with HEKA EPC-10 amplifiers using PatchMaster software or by using the high throughput QPatch platform (Sophion). Bath solution for all experiments contained (in mM): NaCl 137 mM, KCl 4 mM, CaCl2 1.8 mM, MgCl2 1 mM, HEPES 10 mM, D-Glucose 10 mM, pH (NaOH) 7.4. In some cases 0.005% cremophor was also added. Intracellular (pipette) solution contained: KCl 130 mM, MgCl2 1 mM, Mg-ATP 5 mM, HEPES 10 mM, EGTA 5 mM, pH 7.2. During experiments, cells and solutions were maintained at room temperature (19° C.-30° C.). For manual patch clamp recordings, cell culture dishes were placed on the dish holder of the microscope and continuously perfused (1 ml/min) with bath solution. After formation of a Gigaohm seal between the patch electrodes and the cell (pipette resistance range: 2.5 MΩ-6.0 MΩ; seal resistance range: >1 GΩ) the cell membrane across the pipette tip was ruptured to assure electrical access to the cell interior (whole-cell patch-configuration). For experiments using the QPatch system, cells were transferred as suspension to the QPatch system in the bath solution and automated whole cell recordings were performed.
Cells were voltage clamped at a holding potential of −80 mV. For the analysis of test articles, GABA receptors were stimulated by 2 μM GABA after sequential pre-incubation of increasing concentrations of the test article. Pre-incubation duration was 30 s and the duration of the GABA stimulus was 2 s. Test articles were dissolved in DMSO to form stock solutions (10 mM). Test articles were diluted to 0.01, 0.1, 1, and 10 μM in bath solution. All concentrations of test articles were tested on each cell. The relative percentage potentiation was defined as the peak amplitude in response to GABA EC20 in the presence of the test article divided by the peak amplitude in response to GABA EC20 alone, multiplied by 100.

Structure (SMILES)	activity at 10 µM [%]	further results
COC[C@@]1(O)CC[C@H]2[C@H](CC[C@@H]3[C@@H]2CC[C@]2(C)[C@@H](C(=O)Cn4cc5ccncc5n4)CC[C@@H]32)C1 [SA-118]	> 500	
C[C@]12CC[C@H]3[C@@H](CC[C@@H]4C[C@@](O)(C(F)F)CC[C@@H]43)[C@@H]1CC[C@@H]2C(=O)Cn1ncc2ncccc21 [SA-94]	100 to 500	
C[C@]12CC[C@H]3[C@@H](CC[C@H]4C[C@@](O)(CF)CC[C@@H]43)[C@@H]1CC[C@@H]2C(=O)Cn1cc2ccncc2n1 [SB-18]	> 500	
C[C@]12CC[C@H]3[C@@H](CC[C@@H]4C[C@@](O)(CF)CC[C@@H]43)[C@@H]1CC[C@@H]2C(=O)Cn1nnc2ccccc21 [SA-79]	> 500	
C[C@@]1(O)CC[C@H]2[C@@H](CC[C@@H]3[C@@H]2CC[C@]2(C)[C@@H](C(=O)Cn4nnc5cnccc54)CC[C@@H]32)C1 [SB-7]	100 to 500	
C[C@@]1(O)CC[C@H]2[C@H](CC[C@@H]3[C@@H]2CC[C@]2(C)[C@@H](C(=O)Cn4ncc5ncccc54)CC[C@@H]32)C1 [SA-3]		α1β2γ2 GABA Qpatch in Ltk (Efficacy at 10 μm): C (“C” indicates an efficacy value of >500%); Emax: 500 to 1000%; EC50: 1000 to 2000 nM
CCOC[C@@]1(O)CC[C@H]2[C@@H](CC[C@@H]3[C@@H]2CC[C@]2(C)[C@@H](C(=O)Cn4ncc5ccncc54)CC[C@@H]32)C1 [SB-56]	10 to 100	
C[C@@]1(O)CC[C@H]2[C@H](CC[C@@H]3[C@@H]2CC[C@]2(C)[C@@H](C(=O)Cn4nnc5ccccc54)CC[C@@H]32)C1 [SA-1]	> 500	Emax: 500 to 1000%; EC50: 500 to 1000 nM
CCOC[C@@]1(O)CC[C@H]2[C@@H](CC[C@@H]3[C@@H]2CC[C@]2(C)[C@@H](C(=O)Cn4nc5ccccc5n4)CC[C@@H]32)C1 [SB-53]	10 to 100	
COc1cccc2c1nnn2CC(=O)[C@H]1CC[C@H]2[C@@H]3CC[C@@H]4C[C@](C)(O)CC[C@@H]4[C@H]3CC[C@]12C [SA-74]	100 to 500	
C[C@@]1(O)CC[C@H]2[C@H](CC[C@@H]3[C@@H]2CC[C@]2(C)[C@@H](C(=O)Cn4nnc5cccnc54)CC[C@@H]32)C1 [SA-15]	> 500	
CC[C@@]1(O)CC[C@H]2[C@@H](CC[C@@H]3[C@@H]2CC[C@]2(C)[C@@H](C(=O)Cn4nc5ccc(F)cc5n4)CC[C@@H]32)C1 [SB-39]	10 to 100	
Cc1ccc2c(c1)nnn2CC(=O)[C@H]1CC[C@H]2[C@@H]3CC[C@@H]4C[C@](C)(O)CC[C@@H]4[C@H]3CC[C@]12C [SA-43]	100 to 500	
C[C@@]1(O)CC[C@H]2[C@H](CC[C@@H]3[C@@H]2CC[C@]2(C)[C@@H](C(=O)Cn4ncc5ncncc54)CC[C@@H]32)C1 [SA-33]	100 to 500	
COC[C@@]1(O)CC[C@H]2[C@H](CC[C@@H]3[C@@H]2CC[C@]2(C)[C@@H](C(=O)Cn4nnc5cnccc54)CC[C@@H]32)C1 [SA-123]	100 to 500	
C[C@@]1(O)CC[C@H]2[C@H](CC[C@@H]3[C@@H]2CC[C@]2(C)[C@@H](C(=O)Cn4nnc5cccc(F)c54)CC[C@@H]32)C1 [SA-65]	> 500	
COc1cccc2nn(CC(=O)[C@H]3CC[C@H]4[C@@H]5CC[C@@H]6C[C@](C)(O)CC[C@@H]6[C@H]5CC[C@]34C)nc12 [SA-75]	100 to 500	
COC[C@@]1(O)CC[C@H]2[C@@H](CC[C@@H]3[C@@H]2CC[C@]2(C)[C@@H](C(=O)Cn4ncc5ncccc54)CC[C@@H]32)C1 [SB-48]	> 500	
C[C@@]1(O)CC[C@H]2[C@H](CC[C@@H]3[C@@H]2CC[C@]2(C)[C@@H](C(=O)Cn4ncc5nccnc54)CC[C@@H]32)C1 [SA-29]	100 to 500	
COC[C@@]1(O)CC[C@H]2[C@@H](CC[C@@H]3[C@@H]2CC[C@]2(C)[C@@H](C(=O)Cn4nnc5cnccc54)CC[C@@H]32)C1 [SB-43]	100 to 500	
C[C@@]1(O)CC[C@H]2[C@H](CC[C@@H]3[C@@H]2CC[C@]2(C)[C@@H](C(=O)Cn4ncc5ccccc54)CC[C@@H]32)C1 [SA-5]		α1β2γ2 GABA Qpatch in Ltk (Efficacy at 10 μm): C (“C” indicates an efficacy value of >500%); Emax: 500 to 1000%; EC50: 1000 to 2000 nM
